In patent US12030896B2, “PIKfyve inhibitors” (Mayo Foundation for Medical Education and Research, priority 2018, dated 2024):
Several values for one entry are separate records, joined by “and”; a condition that tells them apart may be missing. Identical values can stand only once.

Test: Pharmacokinetic study of Example 1 in mouse (IV, IP, PO)
Format: in vivo, Male C57BL/6 Mouse
Method: Species: Male C57BL/6 Mouse, fasted.
PK/PD testing of the compound was performed in mice, after IP, IV, or oral administration.

[1] = IP 30 mg/kg, individual mice M4-M6, 30 mg/kg
[2] = IV 5 mg/kg, individual mice M1-M3, 5 mg/kg
[3] = PO 30 mg/kg, individual mice M7-M9, 30 mg/kg

With Cc1ccc(Nc2nc(N/N=C/c3c[nH]c4ccccc34)nc(N3CCOCC3)n2)cc1 [Example 1, (E)-4-(2-((1H-indol-3-yl)methylene)hydrazinyl)-6-morpholino-N-(p-tolyl)-1,3,5-triazin-2-amine] the plasma concentration (IP 30 mg/kg, 0.250 h, individual mice M4-M6, 30 mg/kg) was 299 ng/mL and 314 ng/mL, the plasma concentration (IP 30 mg/kg, 0.500 h, individual mice M4-M6, 30 mg/kg) was 430 ng/mL and 376 ng/mL and the plasma concentration (IP 30 mg/kg, 1.00 h, individual mice M4-M6, 30 mg/kg) was 636 ng/mL and 492 ng/mL. The plasma concentration (IP 30 mg/kg, 2.00 h, individual mice M4-M6, 30 mg/kg) was 441 ng/mL and 523 ng/mL, the plasma concentration (IP 30 mg/kg, 4.00 h, individual mice M4-M6, 30 mg/kg) was 232 ng/mL and 158 ng/mL and the plasma concentration (IP 30 mg/kg, 6.00 h, individual mice M4-M6, 30 mg/kg) was 115 ng/mL and 103 ng/mL. The plasma concentration (IP 30 mg/kg, 24.0 h, individual mice M4-M6, 30 mg/kg) was 34.1 ng/mL and 40.7 ng/mL, the Tlast (IP 30 mg/kg, individual mice M4-M6) was 24.0 h and the AUC0-last [1] was 3110 ng·h/mL and 2925 ng·h/mL. The AUC(0-inf) [1] was 3512 ng·h/mL and 3588 ng·h/mL, the AUCExtra [1] was 18.0% and 11.5% and 18.5% and the AUMCExtra [1] was 54.7% and 41.4% and 56.7%. The Cmax [1] was 636 ng/mL and 523 ng/mL, the MRT0-inf [1] was 9.91 h and 13.1 h and the MRT0-last [1] was 6.56 h and 6.98 h. The T1/2 [1] was 8.19 h and 11.3 h, the Tmax [1] was 2.00 h and the AUCExtra (IP 30 mg/kg, mean) was 16.0%. It also gave an AUMCExtra (IP 30 mg/kg, mean) of 50.9%, a Tlast (IP 30 mg/kg, mean) of 24.0 h and a peak concentration (IP, single 30 mg/kg dose) of 534 ng/mL. For the same molecule, the plasma concentration (IV 5 mg/kg, 5 min, individual mice M1-M3, 5 mg/kg) was 1500 ng/mL and 2090 ng/mL, the plasma concentration (IV 5 mg/kg, 0.250 h, individual mice M1-M3, 5 mg/kg) was 1270 ng/mL and 1530 ng/mL and the plasma concentration (IV 5 mg/kg, 0.500 h, individual mice M1-M3, 5 mg/kg) was 1060 ng/mL and 1130 ng/mL. The plasma concentration (IV 5 mg/kg, 1.00 h, individual mice M1-M3, 5 mg/kg) was 591 ng/mL and 678 ng/mL, the plasma concentration (IV 5 mg/kg, 2.00 h, individual mice M1-M3, 5 mg/kg) was 169 ng/mL and 204 ng/mL and the plasma concentration (IV 5 mg/kg, 4.00 h, individual mice M1-M3, 5 mg/kg) was 16.7 ng/mL and 16.4 ng/mL. The plasma concentration (IV 5 mg/kg, 6.00 h, individual mice M1-M3, 5 mg/kg) was 4.04 ng/mL and 3.44 ng/mL, the plasma concentration (IV 5 mg/kg, 24.0 h, individual mice M1-M3) was “BQL” and the Tlast (IV 5 mg/kg, individual mice M1-M3) was 6.00 h. The AUC0-last [2] was 1539 ng·h/mL and 1820 ng·h/mL, the AUC(0-inf) [2] was 1543 ng·h/mL and 1823 ng·h/mL and the AUCExtra [2] was 0.381% and 0.251% and 0.171%. For the same molecule, the AUMCExtra [2] was 2.79% and 1.96% and 1.39%, the C0 [2] was 1630 ng/mL and 2442 ng/mL and the Cl [2] was 54.0 mL/min/kg and 45.7 mL/min/kg. For the same molecule, the MRT0-inf [2] was 0.890 h and 0.847 h, the MRT0-last [2] was 0.875 h and 0.836 h and the T1/2 [2] was 0.665 h and 0.628 h. For the same molecule, the Vdss [2] was 2.89 L/kg and 2.32 L/kg, the AUCExtra (IV 5 mg/kg, mean) was 0.268% and the AUMCExtra (IV 5 mg/kg, mean) was 2.05%. For the same molecule, the Tlast (IV 5 mg/kg, mean) was 6.00 h, the plasma concentration (PO 30 mg/kg, 0.250 h, individual mice M7-M9, 30 mg/kg) was 59.6 ng/mL and 65.0 ng/mL and the plasma concentration (PO 30 mg/kg, 0.500 h, individual mice M7-M9, 30 mg/kg) was 84.2 ng/mL and 115 ng/mL. For the same molecule, the plasma concentration (PO 30 mg/kg, 1.00 h, individual mice M7-M9, 30 mg/kg) was 145 ng/mL and 55.8 ng/mL and 75.3 ng/mL, the plasma concentration (PO 30 mg/kg, 2.00 h, individual mice M7-M9, 30 mg/kg) was 58.6 ng/mL and 16.2 ng/mL and 16.7 ng/mL and the plasma concentration (PO 30 mg/kg, 4.00 h, individual mice M7-M9, 30 mg/kg) was 12.7 ng/mL and 5.98 ng/mL and 3.78 ng/mL. The plasma concentration (PO 30 mg/kg, 6.00 h, individual mice M7-M9, 30 mg/kg) was 11.3 ng/mL and 7.80 ng/mL, the plasma concentration (PO 30 mg/kg, 24.0 h, individual mice M7-M9) was “BQL” and the Tlast (PO 30 mg/kg, individual mice M7-M9) was 6.00 h. The AUC0-last [3] was 291 ng·h/mL and 129 ng·h/mL and 145 ng·h/mL, the AUC(0-inf) [3] was 158 ng·h/mL and 162 ng·h/mL and the AUCExtra [3] was 6.68% and 18.1% and 10.7%. The AUMCExtra [3] was 25.1% and 52.3% and 41.3%, the Cmax [3] was 84.2 ng/mL and 115 ng/mL and the MRT0-inf [3] was 2.96 h and 2.14 h. The MRT0-last [3] was 1.72 h and 1.41 h, the T1/2 [3] was 1.76 h and 1.55 h and the AUCExtra (PO 30 mg/kg, mean) was 11.9%. For the same molecule, the AUMCExtra (PO 30 mg/kg, mean) was 39.6%, the Tlast (PO 30 mg/kg, mean) was 6.00 h and the concentration at 0.25 h (male, C57BL/6, mouse, plasma, ip, 30 mg/kg, IP 30 mg/kg, 0.250 h, individual mice M4-M6) was 242 ng/mL. It also gave a concentration at 0.25 h (male, C57BL/6, mouse, plasma, ip, 30 mg/kg, IP 30 mg/kg, 0.250 h, mean) of 285 ng/mL, a concentration at 0.5 h (male, C57BL/6, mouse, plasma, ip, 30 mg/kg, IP 30 mg/kg, 0.500 h, individual mice M4-M6) of 381 ng/mL and a concentration at 0.5 h (male, C57BL/6, mouse, plasma, ip, 30 mg/kg, IP 30 mg/kg, 0.500 h, mean) of 396 ng/mL. It also gave a concentration at 1 h (male, C57BL/6, mouse, plasma, ip, 30 mg/kg, IP 30 mg/kg, 1.00 h, individual mice M4-M6) of 443 ng/mL, a concentration at 1 h (male, C57BL/6, mouse, plasma, ip, 30 mg/kg, IP 30 mg/kg, 1.00 h, mean) of 524 ng/mL and a concentration at 2 h (male, C57BL/6, mouse, plasma, ip, 30 mg/kg, IP 30 mg/kg, 2.00 h, individual mice M4-M6) of 367 ng/mL. The concentration at 2 h (male, C57BL/6, mouse, plasma, ip, 30 mg/kg, IP 30 mg/kg, 2.00 h, mean) was 444 ng/mL, the concentration at 4 h (male, C57BL/6, mouse, plasma, ip, 30 mg/kg, IP 30 mg/kg, 4.00 h, individual mice M4-M6) was 136 ng/mL and the concentration at 4 h (male, C57BL/6, mouse, plasma, ip, 30 mg/kg, IP 30 mg/kg, 4.00 h, mean) was 175 ng/mL. It also gave a concentration at 6 h (male, C57BL/6, mouse, plasma, ip, 30 mg/kg, IP 30 mg/kg, 6.00 h, individual mice M4-M6) of 97.8 ng/mL.
